Measurements as given in patent US9060987B2, “Methods for treating gout flares” (CymaBay Therapeutics, Inc., priority 2011, dated 2015).

Experiments:
[1] = test system: gout patients; conditions: monotherapy at 40, 80, 120, 160 and 240 mg/day; cited from earlier work
[2] = test system: gout patients with hyperuricemia; assay: Open-label trial of arhalofenate in combination with febuxostat vs febuxostat alone: sUA reduction and flare prevention; format: in vivo, human
Description: Study Design: This was an open-label study to determine the sUA reduction and flare prevention with arhalofenate in combination with febuxostat and compared that with febuxostat alone in gout patients (per criteria of the American Rheumatism Association) with hyperuricemia when arhalofenate administered at 400 mg once daily orally for 2 weeks (Weeks 2-3) and then increased to 600 mg once daily orally for an additional 2 weeks (Weeks 4-5) in addition to 80 mg febuxostat once daily orally (Weeks 1-5). Patients with a recent history of an acute gout flare must have been symptom free for at least 1 week prior to screening.
All patients who met the screening criteria started a 2-week Run-in/Stabilization Phase at the same time as out-patient basis. During this phase, patients on existing urate lowering therapy were asked to discontinue their current therapy for the duration of the study. At the same time, patients also started colchicine 0.6 mg once daily as prophylaxis to prevent potential gout flares. Upon completing the Run-in/Stabilization Phase, patients were reassessed at Day −2 (Visit 2) to confirm the final eligibility for the Treatment Phase. The sUA at this visit must have been ≧8.0 mg/dL and ≦10 mg/dL to qualify for the Treatment Phase. In addition, all safety lab values must have met the eligibility criteria at this visit. Patients successfully meeting the eligibility criteria entered the study site for an in-clinic stay for a total of 37 consecutive days.
The Treatment Phase began on Day 1 and continued for 5 weeks until Day 35. The Treatment Phase consisted of 3 sequential drug dosing periods:
80 mg febuxostat orally once daily from Days 1 through 7 (Febuxostat Period).
80 mg febuxostat plus 400 mg arhalofenate orally once daily from Days 8 through 21 (Febuxostat plus 400 mg arhalofenate Period).
80 mg febuxostat plus 600 mg arhalofenate orally once daily from Days 22 through 35 (Febuxostat plus 600 mg arhalofenate Period).
In addition, all patients continued to receive 0.6 mg colchicine daily for gout flare prophylaxis.
Efficacy of febuxostat plus arhalofenate combination treatment was assessed by the proportion of patients achieving a sUA<6 mg/dL, <5 mg/dL, <4 mg/dL, and <3 mg/dL at Day 22 and Day 36. In addition, absolute and percent changes in sUA at Day 22 and Day 36 from baseline (Day 1) were also evaluated. Gout flares were captured as special interest event in this study. The incidence of gout flares, severity (as assessed either mild, moderate, or severe by the Principal Investigator), and duration (days) were compared between treatment periods.

[3] = test system: healthy adult subjects; assay: Phase 1 multiple-dose study, serum uric acid after once daily oral dosing for 10 days; format: in vivo, human; conditions: all dose levels tested, FIG. 3 and Table 1
Description: Methods used in relation to FIG. 3 showing reduction in serum uric acid in subjects over time following once daily dosing with arhalofenate were as follows.
A single centre Phase 1, placebo- and positive-controlled, double-blind, randomized, dose escalation study was conducted to evaluate the multiple-dose pharmacokinetics (PK) of (−)-halofenate administered as a daily dose orally for 10 days, at the protocol-specified doses in healthy adult subjects. A total of 119 subjects completed study treatment according to protocol: 6 subjects received (−)-halofenate 100 mg/day for 10 days; 6 subjects received (−)-halofenate 200 mg/day for 10 days; 9 subjects received (−)-halofenate 400 mg/day for 10 days; 20 subjects received (−)-halofenate 600 mg/day for 10 days; 10 subjects received (−)-halofenate 600 mg Enteric Coated (EC)/day for 10 days; 9 subjects received (−)-halofenate 800 mg EC/day for 10 days; 10 subjects received (−)-halofenate 1000 mg EC/day for 10 days; 24 subjects received placebo treatment daily for 10 days; and 25 subjects received naproxen 500 mg b.i.d. monotherapy for 7 days. In this study, serum uric acid was measured at screening and on Days 1, 3, 5, 7, 9, 14 and 21.

[4] = test system: gout patients with hyperuricemia; assay: Randomized, double-blind, placebo-controlled 4-week monotherapy trial: sUA reduction and flare prevention; format: in vivo, human; conditions: for Flares considered moderate in severity by the investigator / Patients who reported flare during the Treatment Phase / Patients with flare that required medication (additional colchicine and/or NSAIDs) / Mean duration of Flares Requiring Treatment / Mean duration of Total flares / Mean sUA absolute change from baseline (Day 1) / Mean sUA percent change from baseline (Day 1): 4 weeks; for Mean sUA absolute change from baseline (Day 1) / Mean sUA percent change from baseline (Day 1): PP population; for Mean sUA percent change from baseline (Day 1): colchicine 0.6 mg background
Description: Study Design: This was a randomized, double-blind, placebo-controlled study of 400 mg and 600 mg arhalofenate administered daily for 4 weeks as monotherapy in patients with gout (per criteria of the American Rheumatism Association) with hyperuricemia. Patients using urate lowering therapy (ULT) must have been willing to discontinue treatment for the duration of the study. Patients with a recent history of an acute gout flare must have been symptom free for at least 1 week prior to screening. Upon successful completion of screening, patients entered into a minimum 3-week Run-in/Stabilization Phase. During this phase, patients on existing ULT were asked to temporarily discontinue their current therapy. Patients also started colchicine 0.6 mg once daily until the final study visit as prophylaxis to prevent potential gout flares. Patient who met final eligibility criteria were randomized (1:1:1) into the Treatment Phase to receive Placebo, arhalofenate 400 mg, or arhalofenate 600 mg. Each randomized patient took double-blind study medication daily for a period of four weeks beginning at Day 1 (Visit 3). Patients returned to the study site after 2 weeks at Visit 4 and then weekly at Visits 5 and 6 (Weeks 3 and 4). A Follow-up Visit (Visit 7) took place 2 weeks after the last dose of study medication. […] Patients with a recent history of an acute gout flare must have been symptom free for at least 1 week prior to both screening and randomization. Criteria for Evaluation: The primary efficacy analysis compared the percentage change in sUA from baseline to end of treatment between the treatment groups. In addition, gout flares were captured as special interest event and the incidence of gout flares (all flares and flares that required treatment), severity (as assessed either mild, moderate, or severe by the Principal Investigator), and duration (days) were compared between treatment groups.

[5] = test system: murine 3T3-L1 adipocytes; assay: Suppression of uric-acid induced inflammation in vitro; format: cell-based; conditions: 50-150 μM, uric acid 5 or 15 mg/dL, 3 or 7 days
Description: Differentiated murine 3T3-L1 adipocytes are cultured in vitro in 24 well plates. To the culture medium (−)-halofenic acid is added at a final concentration of 50-150 μM prior to the addition of uric acid at 5 mg/dL or 15 mg/dL and the culture continued for 3 or 7 days. A parallel culture of cells is conducted in the presence of a vehicle such as dimethylsulfoxide (DMSO). At the end of the culture period media is removed, cells are isolated and messenger RNA prepared. The levels of secreted cytokines representing a panel of pro-inflammatory cytokines including but not restricted to monocyte chemoattractant protein-1 (MCP-1), tumor necrosis factor α (TNF-α), interleukin-1β, (IL-1β), interleukin-6 (IL-6) and interleukin-12 (Il-12) are determined in the media isolated from the cells using commercially available cytokine assay kits. The levels of gene expression for the mRNAs for a panel of pro-inflammatory cytokines including but not restricted to monocyte chemoattractant protein-1 (MCP-1), tumor necrosis factor α (TNF-α), interleukin-1β, (IL-1β), interleukin-6 (IL-6) and interleukin-12 (Il-12) are determined using real-time PCR. […] A similar study is also conducted in primary mouse macrophages and human umbilical vein endothelial cells.

[6] = Plasma concentration of (−)-halofenic acid during and after 30-day daily oral 400 mg arhalofenate; format: in vivo, human
Description: Methods used in relation to FIGS. 1-2 showing the pharmacokinetic profile of (−)-halofenic acid were as follows:
Plasma proteins in human plasma samples containing of (−)-halofenic acid, an internal standard (I.S.) and heparin as the anticoagulant were precipitated with acetonitrile. The samples were vortex mixed, centrifuged and an aliquot was analyzed by reversed phase high performance liquid chromatography using a Phenomenex Polar RP column maintained at 45° C. The mobile phase was nebulized using heated nitrogen in a Z-spray source/interface and the ionized compounds were detected using a tandem quadrupole mass spectrometer.
The plasma concentrations were rounded to the nearest one-tenth μg/mL before the calculations. Plasma samples with concentrations below the quantifiable limit of 1.0 μg/mL (BQL) were assigned values of zero.

[7] = Day 8, after one week of daily 80 mg febuxostat

O=c1[nH]cnc2c(CN3C[C@H](CO)[C@@H](O)C3)c[nH]c12 [Ulodesine, 7-(((3R,4R)-3-hydroxy-4-(hydroxymethyl)pyrrolidin-1-yl)methyl)-3H-pyrrolo[3,2-d]pyrimidin-4(5H)-one]
Serum uric acid in gout patients [1]: rapidly and significantly reduced serum uric acid

Cc1nc(-c2ccc(OCC(C)C)c(C#N)c2)sc1C(=O)O [febuxostat, 2-(3-cyano-4-isobutoxyphenyl)-4-methyl-1,3-thiazole-5-carboxylic acid]
Patients who experienced gout flares ([2]; 1 week of febuxostat only period (80 mg), colchicine 0.6 mg background): 2 patients
Patients who reached sUA <4 mg/dL [2, 7]: 9%
Patients who reached sUA <5 mg/dL [2, 7]: 55%
Patients who reached sUA target of <6 mg/dL [2, 7]: 100%
Patients who reported flare, adjusted by duration of treatment ([2]; febuxostat only period, FIG. 6): 18.2 % patients/week
Mean duration of the gout flares ([2]; febuxostat only period, FIG. 7): 6.5 days

CC(=O)NCCOC(=O)[C@H](Oc1cccc(C(F)(F)F)c1)c1ccc(Cl)cc1 [arhalofenate, (−)-(R)-(4-chloro-phenyl)-(3-trifluoromethyl-phenoxy)-acetic acid 2-acetylamino-ethyl ester]
Reduction in serum uric acid over time [3]: gradual reduction in serum uric acid over a period of time at all dose levels tested, and in a dose dependent manner
Flares considered moderate in severity by the investigator ([4]; 400 mg daily): 2 of 4
Patients who reported flare during the Treatment Phase ([4]; 400 mg daily, FIG. 4): 19.0%
Patients with flare that required medication (additional colchicine and/or NSAIDs) ([4]; 400 mg daily, FIG. 4): 4.8%
Mean duration of Flares Requiring Treatment ([4]; 400 mg daily, FIG. 5): 2.0 days
Mean duration of Total flares ([4]; 400 mg daily, FIG. 5): 1.3 days
Mean sUA absolute change from baseline (Day 1) ([4]; 400 mg daily): -1.4 mg/dL
Mean sUA percent change from baseline (Day 1) ([4]; 400 mg daily): −15.4%
Flares considered moderate in severity by the investigator ([4]; 600 mg daily): 0 of 2
Patients who reported flare during the Treatment Phase ([4]; 600 mg daily, FIG. 4): 4.3%
Patients with flare that required medication (additional colchicine and/or NSAIDs) ([4]; 600 mg daily, FIG. 4): 4.3%
Mean duration of Flares Requiring Treatment ([4]; 600 mg daily, FIG. 5): 1.0 days
Mean duration of Total flares ([4]; 600 mg daily, FIG. 5): 1.0 days
Mean sUA absolute change from baseline (Day 1) ([4]; 600 mg daily): -2.3 mg/dL
Mean sUA percent change from baseline (Day 1) ([4]; 600 mg daily): −23%
Incidence of any flares (Total flare) and flares requiring treatment compared to placebo ([4]; monotherapy, FIG. 4): dose dependently reduced the incidence of any flares (Total flare) and flares requiring treatment compared to placebo
Duration of all flares (any flares and flares requiring treatment) ([4]; monotherapy, FIG. 5): also reduced the duration of all flares
Uptake of uric acid into 3T3-L1 adipocytes [5]: prevents the uptake of uric acid into 3T3-L1 adipocytes
Uric acid induced inflammatory response (expression and secretion of pro-inflammatory cytokines) [5]: suppresses the uric acid induced inflammatory response

O=C(O)C(Oc1cccc(C(F)(F)F)c1)c1ccc(Cl)cc1 (single isomer, unassigned; (-)) [(−)-halofenic acid, (−)-4-chlorophenyl-(3-trifluoromethylphenoxy)acetic acid]
Half-life of (−)-halofenic acid in plasma ([6]; daily oral 400 mg arhalofenate for 30 days, FIGS. 1-2): a long half-life with sustained drug levels present for several days after the final dose
Intraday plasma concentration profile ([6]; daily oral 400 mg arhalofenate, Day 15 and Day 30, FIG. 2): a relatively constant intraday plasma concentration
